In publication PMC6058497 (Drug Delivery, 2018):
Converted amounts (≈) assume the structure as drawn. Where two headings read alike, the source gives them in different places. Values belong to the compound of their own block, whether it stands above or below them.

Legend:
[1] = cited from earlier work
[2] = Molecular weight distribution by gel permeation chromatography; type: physicochemical; settings: dissolved in water
Protocol: The molecular weight distribution (MWD) of the samples was investigated by gel permeation chromatography (GPC) on the Agilent 1200 chromatograph with column PL aquel-OH 40 (Santa Clara, CA), 300 × 7.5 mm column at 30 °C with refractometric detector. The solvent used was 0.02% NaN3 aqueous solution and flow rate was 1 mL/min. The calibration was performed by standard dextrans with molecular weights of 1, 5, 12, 25, 80, 150, 270, and 410 kDa. Agilent GPC data analysis program was used to process the results (Santa Clara, CA).

MCF-7 cells = assay: MTT cytotoxicity test, MCF-7; type: cell-based, human; settings: for Viability: 48 h
Protocol: (§1) Cancer cell lines U-87 MG (glioblastoma) and MCF-7 (breast cancer) were obtained from the ATCC (ATCC number HTB-14 and HTB-22, respectively). Immortalized human fibroblasts used as normal cells were kindly provided by Alexander G. Shilov (Institute of Cytology and Genetics SB RAS). The cells were maintained in DMEM plus 10% FBS, under a temperature of 37 °C, atmosphere of 5% of CO2 and 90% humidity.
(§2) MTT test was performed according to a standard procedure (Mosmann, [1983]). Cells were seeded in a 96-well plate at a density of 5 × 10^3 cells/well and after 24 h of adherence, the cells were treated with different concentration of test compounds and incubated for 48 h at 37 °C in an atmosphere of 5% CO2 in air. Untreated cells were used as negative control and doxorubicin was used as a positive control. After the incubation period, 10 μL MTT solution (3 mg/mL of PBS) was added to each well followed by incubation for 3 h under the condition mentioned above. Then, the MTT-containing medium was removed and the formazan crystals were dissolved with 100 μL of isopropanol. Absorbance was measured at 630 and 492 nm using a microplate reader (Thermo Scientific, Waltham, MA). The cell viability percentage was calculated using the following formula: Viability (%)=OD (treated cells)/OD (untreated cells) × 100, where OD was an optical density of solution.

[3] = system: immortalized human fibroblasts; assay: MTT cytotoxicity test, immortalized human fibroblasts; type: cell-based; settings: for Viability: 48 h
Protocol: as §1, §2

U-87 MG cells = assay: MTT cytotoxicity test, U-87 MG; type: cell-based, human
Protocol: as §1, §2

[4] = Oral pharmacokinetic (bioavailability) study in rats; type: in vivo; settings: male, Sprague Dawley; rat plasma, single oral dose 150 mg/kg Cur
Protocol: The pharmacokinetic study was carried out in male Sprague Dawley rats (10 weeks of age, 250–260 g body weight, provided by the Zhejiang Academy of Medical Science, Hangzhou, China). All animal (used in this experiment) handling procedures were performed in strict compliance with the PR China legislation for the use and care of laboratory animals and were approved by the University Committee for Animal Experiments. The animals were fasted overnight (12 h) and had free access to drinking water throughout the experimental period. […] To evaluate the concentration of Cur in plasma, blood was collected into heparinized Eppendroff tubes at different time points: 0.083, 0.25, 0.5, 1, 2, 4, 6, 8, 12, and 24 h post-dosing and centrifuged (Sigma Laboratory Centrifuge, Model 3K-30, Osterode am Harz, Germany) at 9391 × g for 5 min to separate the plasma. The plasma samples were stored at –80 °C until further analysis.
A 100 μL aliquot of plasma was transferred to a clean microcentrifuge tube and next treated with 100 μL of a solution containing 1000 U of β-glucuronidase in 0.1 M phosphate buffer (pH 6.8). The resulting mixture was then thoroughly vortexed and incubated at 37 °C for 1 h to hydrolyze the conjugated Cur. After incubation, 0.1 mL acetonitrile was added to 0.1 mL of plasma and centrifuged (Sigma Laboratory Centrifuge, Model3K-30, Osterode am Harz, Germany) at 9391 × g for 15 min, and then the supernatant was subjected to be analyzed by HPLC.
Standard pharmacokinetic parameters for free Cur and Cur SDs were calculated by linear trapezoidal method using the PKSolver, a freely available menu-driven add-in program for Microsoft Excel. The results were presented as mean ± standard error of the mean (SEM). One-way analysis of variance (ANOVA) was followed by Dunnett’s test for multiple comparisons statistical evaluation. p Values <.05 were considered significant.

[5] = Solubility determination in distilled water (HPLC); type: physicochemical; settings: +37 °C
Protocol: The amount of Cur was determined by using a high performance liquid chromatography (HPLC) system (Agilent 1200, Santa Clara, CA) with column Zorbax Eclipse XDB-C18, 4.6 × 50 mm at +30 °C and diode-array detector. Acetonitrile–acetate buffer (55:45) was used as eluent (pH = 3.4) with flow rate of 1.0 mL/min, and detection wavelength was 430 nm. […] At last, sample solutions were filtered and analyzed by HPLC.

[6] = set-up: method as in Priyadarsini, 2014; settings: acidic and neutral pH; ref Priyadarsini, 2014; cited from earlier work

SMILES: CC1(C)[C@@H](O[C@H]2O[C@H](C(=O)O)[C@@H](O)[C@H](O)[C@H]2O[C@@H]2O[C@H](C(=O)O)[C@@H](O)[C@H](O)[C@H]2O)CC[C@]2(C)[C@H]3C(=O)C=C4[C@@H]5C[C@@](C)(C(=O)O)CC[C@]5(C)CC[C@@]4(C)[C@]3(C)CC[C@@H]12 [GA, Glycyrrhizic acid]
Molecular weight of micelles formed in water ([1]; dissolved in water, ref Dushkin & Tolstikova, 2012): 66 kDa
Critical micelle concentration ([1]; ref Kornievskaya et al., 2007, Polyakov, 2011): ~1 mM

Molecular weight of micelles formed in water [2]: 85–90 kDa
SMILES: CC1(C)[C@@H](O[C@H]2O[C@H](C(=O)[O-])[C@@H](O)[C@H](O)[C@H]2O[C@@H]2O[C@H](C(=O)O)[C@@H](O)[C@H](O)[C@H]2O)CC[C@]2(C)[C@H]3C(=O)C=C4[C@@H]5C[C@@](C)(C(=O)[O-])CC[C@]5(C)CC[C@@]4(C)[C@]3(C)CC[C@@H]12.[Na+].[Na+] [Na2GA, disodium glycyrrhizin]
Viability (MCF-7 cells; MCF-7, 25 μM): 98.2 ± 2.13%
Viability (MCF-7 cells; MCF-7, 50 μM): 97.8 ± 3.33%
Viability (MCF-7 cells; MCF-7, 100 μM): 98.2 ± 0.41%
Viability (MCF-7 cells; MCF-7, 200 μM): 98.7 ± 1.59%
Viability (MCF-7 cells; MCF-7, 400 μM): 99.6 ± 1.34%
Cytotoxicity (MCF-7 cells; MCF-7, 25–400 μM): no cytotoxicity
Viability ([3]; 25 μM): 96.2 ± 2.78%
Viability ([3]; 50 μM): 97.3 ± 1.73%
Viability ([3]; 100 μM): 98.8 ± 4.18%
Viability ([3]; 200 μM): 96.0 ± 1.66%
Viability ([3]; 400 μM): 98.3 ± 0.90%
Cytotoxicity ([3]; 25–400 μM): no cytotoxicity
Viability (U-87 MG cells; 25 μM, 48 h): 96.6 ± 2.39%
Viability (U-87 MG cells; 50 μM, 48 h): 95.9 ± 1.16%
Viability (U-87 MG cells; 100 μM, 48 h): 92.2 ± 2.75%
Viability (U-87 MG cells; 200 μM, 48 h): 92.2 ± 2.63%
Viability (U-87 MG cells; 400 μM, 48 h): 92.9 ± 1.65%
Cytotoxicity (U-87 MG cells; 25–400 μM): no cytotoxicity

AUC(0-inf) [4]: 14300 ± 720 ng·h/mL
AUC(0-t) [4]: 12100 ± 360 ng·h/mL
Cmax [4]: 1480 ± 30 ng/mL
Tmax [4]: 0.25 h
half-life [4]: 5.07 ± 0.41 h
solubility at 12 h [5]: 1.73 µg/mL (≈ 4.7 µM)
SMILES: COc1cc(/C=C/C(=O)CC(=O)/C=C/c2ccc(O)c(OC)c2)ccc1O [Free Cur, Curcumin]
Mean cell survival (U-87 MG cells; Cur concentration range 25–100 μM, 48 h): above 80%
Solubility in water [6]: practically insoluble
